In patent publication US20240270809A1, “ORAL GLP RECEPTOR AGONISTS” (priority 2020, published 2024):
Read-outs that look alike come from different tables or passages of the source. Positions of bridges follow the written chain, without caps; N, C: chain ends. Non-standard residues stand in square brackets, D forms with d. Residues, ends and D or L forms follow the SMILES beside them. *: point of attachment. Malonyl(2,2-Me2,histaminyl) = CC(C)(C(=O)NCCc1cnc[nH]1)C(=O)*; αMePhe(2-F) = C[C@](N)(Cc1ccccc1F)C(=O)O; αMeL = CC(C)C[C@](C)(N)C(=O)O; Nle = CCCC[C@H](N)C(=O)O; Aib = CC(C)(N)C(=O)O

Assays:
Type in all cases: cell-based
human GLP1 receptor = molecular target: T1, human GLP1 receptor (Homo sapiens, UniProt P43220); experiment: cAMP accumulation assay, functional agonism of human GLP1 receptor; details: HEK cells infected with human GLP1 receptor BacMam virus, HTRF cAMP; for Emax: HEK293, read-out: Human GLP-1R agonist cAMP Emax; for EC50: read-out: Human GLP-1R agonist cAMP pEC50 (converted)
T1 construct: expressed in transfected cells; host or cells: HEK cells, BacMam virus transduction
Method in brief: (§1)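 Agonist-driven cAMP production was quantified by homogeneous time-resolved fluorescence. Receptor expression in HEK cells came from a 24-hour BacMam infection, and cells were frozen ahead of the assay. Incubation lasted 45 min at 37° C in HBSS supplemented with 0.5 mM IBMX.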

human GLP2 receptor = molecular target: T2, human GLP2 receptor (Homo sapiens, UniProt O95838); experiment: cAMP accumulation assay, functional agonism of human GLP2 receptor; details: HEK cells infected with human GLP2 receptor BacMam virus, HTRF cAMP; for Emax: HEK293, read-out: Human GLP-2R agonist cAMP Emax; for EC50: read-out: Human GLP-2R agonist cAMP pEC50 (converted)
T2 construct: expressed in transfected cells; host or cells: HEK cells, BacMam virus transduction
T2 sequence (O95838 1-553): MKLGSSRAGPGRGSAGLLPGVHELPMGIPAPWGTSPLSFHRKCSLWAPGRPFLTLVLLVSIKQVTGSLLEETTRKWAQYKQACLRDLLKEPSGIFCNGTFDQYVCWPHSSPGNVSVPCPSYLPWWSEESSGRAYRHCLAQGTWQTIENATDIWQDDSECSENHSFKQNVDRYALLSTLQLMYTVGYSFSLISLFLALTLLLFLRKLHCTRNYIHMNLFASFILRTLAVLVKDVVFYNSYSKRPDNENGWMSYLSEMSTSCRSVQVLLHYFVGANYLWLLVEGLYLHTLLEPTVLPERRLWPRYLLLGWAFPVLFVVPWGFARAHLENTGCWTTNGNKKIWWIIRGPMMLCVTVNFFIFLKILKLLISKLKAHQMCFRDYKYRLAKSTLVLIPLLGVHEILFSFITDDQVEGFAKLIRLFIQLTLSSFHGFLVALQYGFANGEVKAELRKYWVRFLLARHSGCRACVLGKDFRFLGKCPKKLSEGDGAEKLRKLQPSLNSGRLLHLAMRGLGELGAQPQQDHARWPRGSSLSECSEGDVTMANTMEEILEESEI
Method in brief: as §1

mouse GLP2 receptor = molecular target: T3, mouse GLP2 receptor (Mus musculus, UniProt Q5IXF8); experiment: cAMP accumulation assay, functional agonism of mouse GLP2 receptor
T3 construct: expressed in transfected cells; host or cells: HEK cells, transient transfection with GeneJuice
T3 sequence (Q5IXF8 1-512): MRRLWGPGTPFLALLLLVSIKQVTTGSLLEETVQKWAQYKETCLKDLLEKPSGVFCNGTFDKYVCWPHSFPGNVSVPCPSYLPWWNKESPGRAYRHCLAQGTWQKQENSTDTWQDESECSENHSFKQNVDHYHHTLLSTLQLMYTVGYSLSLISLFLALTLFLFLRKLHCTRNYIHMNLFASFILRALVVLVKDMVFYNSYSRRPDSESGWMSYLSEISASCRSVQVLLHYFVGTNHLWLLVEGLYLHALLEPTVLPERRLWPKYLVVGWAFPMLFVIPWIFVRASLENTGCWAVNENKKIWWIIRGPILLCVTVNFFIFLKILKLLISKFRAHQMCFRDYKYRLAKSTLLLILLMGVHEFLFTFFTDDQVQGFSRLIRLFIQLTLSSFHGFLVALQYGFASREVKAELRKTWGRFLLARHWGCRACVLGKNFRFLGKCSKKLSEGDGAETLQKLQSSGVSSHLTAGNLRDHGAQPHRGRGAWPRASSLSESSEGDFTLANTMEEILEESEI
Description: CAMP production upon agonist stimulation of mouse GLP2 or GLP1 receptors was assessed utilizing HiRange cAMP kit (Cisbio). In brief, HEK cells were transiently transfected for 24 hours with cDNA using GeneJuice Transfection reagent (EMD Millipore) and frozen at −80° C. for later use in the assay. On the day, various concentrations of compounds were dispensed using ECHO-555 (LabCyte) to a total volume of 100 nl into a low volume 384-well Proxi plate (Perkin Elmer) followed by addition of 10 μl of cell suspension delivering 8000 cells per well. Cells were prepared in the assay buffer (HBSS (Lonza) supplemented with 0.5 mM IBMX (Tocris)). After 45 min incubation at 37° C., the reaction was stopped by addition of the HTRF detection reagents in the lysis buffer provided in the kit. Following 1-hour incubation at RT, plates were read on Pherastar FS (BMG Labtech, Inc.) using standard HTRF settings. Dotmatics Studies software was used for calculation of pEC50 values by fitting data to a four-parameter concentration response curve.

[1] = HEK293, HEK cells transiently transfected with mouse GLP2 receptor, HTRF cAMP, read-out: Mouse GLP-2R agonist cAMP Emax
[2] = HEK cells transiently transfected with mouse GLP2 receptor, HTRF cAMP, read-out: Mouse GLP-2R agonist cAMP pEC50 (converted)

T1 sequence (P43220 24-463): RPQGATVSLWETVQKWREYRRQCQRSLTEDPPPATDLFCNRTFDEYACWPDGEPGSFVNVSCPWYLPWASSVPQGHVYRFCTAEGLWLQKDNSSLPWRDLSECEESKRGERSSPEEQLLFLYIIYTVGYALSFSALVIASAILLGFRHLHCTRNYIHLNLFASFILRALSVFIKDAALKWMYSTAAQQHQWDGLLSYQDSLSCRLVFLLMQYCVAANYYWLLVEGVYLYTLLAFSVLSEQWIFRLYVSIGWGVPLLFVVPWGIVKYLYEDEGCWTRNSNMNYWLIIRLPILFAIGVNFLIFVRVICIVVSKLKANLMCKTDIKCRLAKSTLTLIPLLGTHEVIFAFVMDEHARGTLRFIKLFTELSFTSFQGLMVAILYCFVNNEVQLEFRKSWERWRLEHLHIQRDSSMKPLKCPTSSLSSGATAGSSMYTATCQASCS

Row | Compound | Emax (human GLP1 receptor) [%] | EC50 (human GLP1 receptor) [nM] | Emax (human GLP2 receptor) [%] | EC50 (human GLP2 receptor) [nM] | Emax (mouse GLP2 receptor; [1]) [%] | EC50 (mouse GLP2 receptor; [2]) [nM] | EC50 (mouse GLP2 receptor) [nM] | Emax (mouse GLP2 receptor; HEK293, read-out: Mouse GLP-2R agonist cAMP Emax) [%]
1 | CCCC[C@@H]1NC(=O)[C@H](CCC(=O)O)NC(=O)[C@@H](NC(=O)[C@H](CO)NC(=O)[C@](C)(Cc2ccccc2F)NC(=O)[C@H](CO)NC(=O)[C@@H](C)NC(=O)[C@H](CC(=O)O)NC(=O)C(C)(C)C(=O)NCCc2c[nH]cn2)CCCCNC(=O)C[C@@H](C(=O)N[C@H](C(=O)N[C@@H](CC(C)C)C(=O)N[C@@H](CC(=O)O)C(=O)N[C@H]2CCC(=O)NCCCC[C@@H](C(=O)N[C@@H](CC(=O)O)C(=O)N[C@@H](Cc3ccccc3)C(=O)N[C@H](C(=O)N[C@@H](CC(N)=O)C(=O)N[C@@H](Cc3c[nH]c4ccccc34)C(=O)N[C@@H](CC(C)C)C(=O)N[C@H](C(=O)N[C@@H](CCC(N)=O)C(=O)N[C@H]3CCC(=O)NCCCC[C@@H](C(N)=O)NC(=O)[C@H]([C@@H](C)O)NC(=O)[C@H]([C@@H](C)CC)NC(=O)[C@H](CCCCN)NC3=O)[C@@H](C)CC)[C@@H](C)CC)NC(=O)[C@H](C)NC(=O)[C@H](C)NC(=O)[C@H](CCCCN)NC2=O)[C@@H](C)CC)NC(=O)[C@@H](Cc2ccccc2)NC1=O [Example 26] ({Malonyl(2,2-Me2,histaminyl)}-D[dA]S[αMePhe(2-F)]SKE[Nle][dF]DILDEKAAKDFINWLIQEKITK-NH2; lactam 6-10, 14-18, 27-31 (inferred); C-terminus assumed) | 97.1 | 0.158 | 103 | 0.0158 | 86.4 | 3.16 | – | –
2 | CCCC[C@H](NC(=O)[C@H](CCC(=O)O)NC(=O)[C@@H]1CC(=O)NCCCC[C@H](NC(=O)[C@H](CC(=O)O)NC(=O)C(C)(C)NC(=O)[C@@H](N)Cc2c[nH]cn2)C(=O)N[C@@H](CO)C(=O)N[C@@](C)(Cc2ccccc2F)C(=O)N[C@@H](CO)C(=O)N1)C(=O)N[C@H](Cc1ccccc1)C(=O)N[C@H](C(=O)N[C@@](C)(CC(C)C)C(=O)N[C@@H](CC(C)C)C(=O)N[C@@H](CC(=O)O)C(=O)N[C@H]1CCC(=O)NCCCC[C@@H](C(=O)N[C@@H](CC(=O)O)C(=O)N[C@@H](Cc2ccccc2)C(=O)N[C@H](C(=O)N[C@H]2CCC(=O)NCCCC[C@@H](C(=O)N[C@H]3CCC(=O)NCCCC[C@@H](C(N)=O)NC(=O)[C@H]([C@@H](C)O)NC(=O)[C@H]([C@@H](C)CC)NC(=O)[C@H](CCCCN)NC3=O)NC(=O)[C@H]([C@@H](C)CC)NC(=O)[C@H](CC(C)C)NC(=O)[C@H](Cc3c[nH]c4ccccc34)NC2=O)[C@@H](C)CC)NC(=O)[C@H](C)NC(=O)[C@H](C)NC(=O)[C@H](CCCCN)NC1=O)[C@@H](C)O [Example 64] (H-H[Aib]DKS[αMePhe(2-F)]SDE[Nle][dF]T[αMeL]LDEKAAKDFIEWLIKEKITK-NH2; lactam 4-8, 16-20, 24-28, 29-33; N-terminus and C-terminus assumed) | 98 | 0.0251 | 104 | 0.0398 | 99.7 | 2 | – | –
3 | CCCC[C@@H]1NC(=O)[C@H](CCC(=O)O)NC(=O)[C@H](CC(=O)O)NC(=O)[C@@H](NC(=O)[C@H](Cc2ccccc2)NC(=O)[C@H](CO)NC(=O)CNC(=O)[C@H](CC(=O)O)NC(=O)C(C)(C)NC(=O)[C@@H](N)Cc2c[nH]cn2)CCC(=O)NCCCC[C@@H](C(=O)N[C@H]2CCC(=O)NCCCC[C@@H](C(=O)N[C@H]3CCC(=O)NCCCC[C@@H](C(=O)N[C@@H](CC(=O)O)C(=O)N[C@@H](Cc4ccccc4)C(=O)N[C@H](C(=O)N[C@H]4CCC(=O)NCCCC[C@@H](C(=O)N[C@H]5CCCCNC(=O)CC[C@@H](C(N)=O)NC(=O)[C@H]([C@@H](C)O)NC(=O)[C@H]([C@@H](C)CC)NC(=O)[C@H](CCCCN)NC5=O)NC(=O)[C@H]([C@@H](C)CC)NC(=O)[C@H](CC(C)C)NC(=O)[C@H](Cc5c[nH]c6ccccc56)NC4=O)[C@@H](C)CC)NC(=O)[C@H](C)NC(=O)[C@H](C)NC3=O)NC(=O)[C@H](CC(=O)O)NC(=O)[C@H](CC(C)C)NC(=O)[C@H]([C@@H](C)CC)NC2=O)NC1=O [Example 76] (H-H[Aib]DGSFEDE[Nle]KEILDKEAAKDFIEWLIKKKITE-NH2; lactam 7-11, 12-16, 17-20, 24-28, 29-33 (inferred)) | 94.9 | 1 | 102 | 0.0126 | – | – | 1.26 | 102
4 | CCCC[C@H](NC(=O)[C@H](CCC(=O)O)NC(=O)[C@@H]1CCCCNC(=O)CC[C@H](NC(=O)[C@H](CC(=O)O)NC(=O)C(C)(C)NC(=O)[C@@H](N)Cc2c[nH]cn2)C(=O)N[C@@H](CO)C(=O)N[C@@H](Cc2ccccc2)C(=O)N[C@@H](CO)C(=O)N1)C(=O)N[C@H](Cc1ccccc1)C(=O)N[C@H]1CCC(=O)NCCCC[C@@H](C(=O)N[C@H]2CCCCNC(=O)C[C@@H](C(=O)N[C@@H](Cc3ccccc3)C(=O)N[C@H](C(=O)N[C@H]3CCC(=O)NCCCC[C@@H](C(=O)N[C@H]4CCCCNC(=O)CC[C@@H](C(N)=O)NC(=O)[C@H]([C@@H](C)O)NC(=O)[C@H]([C@@H](C)CC)NC(=O)[C@H](CCCCN)NC4=O)NC(=O)[C@H]([C@@H](C)CC)NC(=O)[C@H](CC(C)C)NC(=O)[C@H](Cc4c[nH]c5ccccc45)NC3=O)[C@@H](C)CC)NC(=O)[C@H](CCCCN)NC(=O)[C@H](C)NC(=O)[C@H](C)NC2=O)NC(=O)[C@H](CC(=O)O)NC(=O)[C@H](CC(C)C)NC(=O)[C@H]([C@@H](C)CC)NC1=O [Example 75] (H-H[Aib]DESFSKE[Nle][dF]EILDKKAAKDFIEWLIKKKITE-NH2; lactam 4-8, 12-16, 17-21, 24-28, 29-33 (inferred); C-terminus assumed) | 95 | 0.631 | 102 | 0.0398 | 81.9 | 6.31 | – | –
5 | CCCC[C@H](NC(=O)[C@H](CCC(=O)O)NC(=O)[C@H](CC(=O)O)NC(=O)[C@H](CO)NC(=O)[C@H](Cc1ccccc1)NC(=O)[C@H](CO)NC(=O)CNC(=O)[C@H](CC(=O)O)NC(=O)C(C)(C)NC(=O)[C@@H](N)Cc1c[nH]cn1)C(=O)N[C@H](Cc1ccccc1)C(=O)N[C@H](C(=O)N[C@H](C(=O)N[C@@H](CC(C)C)C(=O)N[C@@H](CC(=O)O)C(=O)N[C@H]1CCCCNC(=O)CC[C@@H](C(=O)N[C@@H](CC(=O)O)C(=O)N[C@@H](Cc2ccccc2)C(=O)N[C@H](C(=O)N[C@@H](CC(N)=O)C(=O)N[C@@H](Cc2c[nH]c3ccccc23)C(=O)N[C@@H](CC(C)C)C(=O)N[C@H](C(=O)N[C@@H](CCC(N)=O)C(=O)N[C@H](C(=O)N[C@@H](CCCCN)C(=O)N[C@H](C(=O)N[C@H](C(=O)N[C@@H](CC(=O)O)C(N)=O)[C@@H](C)O)[C@@H](C)CC)[C@@H](C)O)[C@@H](C)CC)[C@@H](C)CC)NC(=O)[C@H](C)NC(=O)[C@H](C)NC(=O)[C@H](CCCCN)NC1=O)[C@@H](C)CC)[C@@H](C)O [Example 102] (H-H[Aib]DGSFSDE[Nle][dF]TILDKKAAEDFINWLIQTKITD-NH2; lactam 16-20; N-terminus and C-terminus assumed) | 99.3 | 20 | 101 | 0.00126 | 99 | 0.02 | – | –
